According to ChEMBL document CHEMBL3045930, “Study on the quantitative structuretoxicity relationships of aconitine compounds basing on PCA-ANN method” (Med Chem Res, 2013):

These compounds were tested on Mus musculus (assay: Toxicity in po dosed Mus musculus (mouse)). Conditions: in vivo.
Assay type: organism-based
Design: unit not given here
In the case of COC[C@]12CN(C)C3[C@H]4[C@H](OC)[C@H]1[C@@]3([C@@H](OC)C[C@H]2O)[C@@H]1C[C@@]2(O)[C@H](OC(=O)c3ccccc3)[C@@H]1[C@]4(OC(C)=O)[C@@H](OC)[C@@H]2O, the logLD50 was -1. Compound Br.COC[C@@]12CC[C@H](OC)[C@]34C([C@@H]([C@H](OC)[C@H]13)[C@]1(O)[C@H]3[C@@H](OC(=O)c5ccccc5)[C@](O)(C[C@H]34)[C@@H](OC)[C@@H]1O)N(C)C2 has a logLD50 of 1.41. CCN1C[C@]2(C)CC[C@H](O)[C@]34C1[C@@H](C[C@H]23)[C@@]1(O)C[C@H](OC)[C@H]2C[C@@H]4[C@@H]1[C@H]2O [KARAKOLINE] was tested, and the logLD50 was 1.71. In the case of CCN1C[C@]2(COC)CC[C@H](O)[C@]34C1[C@@](O)([C@@H](OC)[C@H]23)[C@@]1(O)C[C@H](OC)[C@H]2C[C@@H]4[C@@H]1[C@H]2O, the logLD50 was 2.04. CCN1C[C@]2(COC)CC[C@H](O)[C@]34C1[C@@](O)([C@@H](OC)[C@H]23)[C@@]1(O)C[C@H](OC)[C@H]2C[C@@H]4[C@@H]1[C@H]2OC.Cl was tested, and the logLD50 was 2.07. CCN1C[C@]2(COC)[C@H](O)C[C@H](OC)[C@]34C1[C@@H]([C@H](OC)[C@H]23)[C@]1(O)[C@H]2[C@@H](OC(=O)c3ccccc3)[C@](O)(C[C@H]24)[C@@H](OC)[C@@H]1O was tested, and the logLD50 was 1. For CCN1C[C@@]2(COC)[C@H]3[C@@H](OC)[C@@H]4C1[C@]3([C@@H](OC)C[C@H]2OC(C)=O)[C@@H]1C[C@@]2(OC(C)=O)[C@H](OC(=O)c3ccccc3)[C@@H]1[C@]4(OC(C)=O)[C@@H](OC(C)=O)[C@@H]2OC, the logLD50 was 2.1. Br.COC[C@]12CN(C)C3[C@H]4[C@H](OC)[C@H]1[C@@]3([C@@H](OC)C[C@H]2O)[C@@H]1C[C@@]2(O)[C@H](OC(=O)c3ccccc3)[C@@H]1[C@]4(OC(C)=O)[C@@H](O)[C@@H]2OC showed a logLD50 of -0.95. Compound CCN1C[C@]2(O)CC[C@H](OC)[C@]34C1[C@@H](C[C@H]23)[C@@]1(O)C[C@H](OC)[C@H]2C[C@@H]4[C@]1(O)[C@H]2OC has a logLD50 of 2.15. Br.CCN1C[C@]2(OC(=O)c3ccccc3NC(C)=O)CC[C@H](OC)[C@]34C1[C@@H](C[C@H]23)[C@@]1(O)C[C@H](OC)[C@H]2C[C@@H]4[C@]1(O)[C@H]2OC showed a logLD50 of 0.92. CCN1C[C@@]2(COC)[C@H]3[C@@H](OC)[C@@H]4C1[C@]3([C@@H](OC)C[C@H]2OC(C)=O)[C@@H]1C[C@@]2(OC(C)=O)[C@H](OC(C)=O)[C@@H]1[C@]4(OC(C)=O)[C@@H](OC(C)=O)[C@@H]2OC gave a logLD50 of 2.83. For CCN1C[C@]2(COC)[C@H](O)C[C@H](OC)[C@]34C1[C@@H]([C@H](OC)[C@H]23)[C@@]1(OC(C)=O)C[C@H](OC)[C@@]2(O)C[C@@H]4[C@@H]1[C@H]2OC(=O)c1ccccc1, the logLD50 was -0.33. CCN1C[C@@]2(COC)[C@H]3[C@@H](OC)[C@@H]4C1[C@]3([C@@H](OC)C[C@H]2OC(C)=O)[C@@H]1C[C@]2(OC(C)=O)[C@@H](OC)C[C@@]4(OC(C)=O)[C@H]1[C@H]2OC(=O)c1ccccc1 was tested, and the logLD50 was 1.34. For CCN1C[C@]2(COC)CC[C@H](O)[C@]34C1[C@@](O)([C@@H](OC)[C@H]23)[C@@]1(O)C[C@H](OC)[C@H]2C[C@@H]4[C@@H]1[C@H]2OC [DELSOLINE], the logLD50 was 2.24. Work on CCN1C[C@]2(OC(=O)c3ccccc3NC(C)=O)CC[C@H](OC)[C@]34C1[C@@H](C[C@H]23)[C@@]1(O)C[C@H](OC)[C@H]2C[C@@H]4[C@]1(O)[C@H]2OC yielded a logLD50 of 0.84. Br.COC[C@@]12CC[C@H](OC)[C@]34C([C@@H]([C@H](OC)[C@H]13)[C@]1(OC(C)=O)[C@H]3[C@@H](OC(=O)c5ccccc5)[C@](O)(C[C@H]34)[C@@H](OC)[C@@H]1O)N(C)C2 showed a logLD50 of -0.27. CCN1C[C@]2(COC)[C@H](O)C[C@H](OC)[C@]34C1[C@@H]([C@H](OC)[C@H]23)[C@]1(OC(C)=O)[C@H]2[C@@H](OC(=O)c3ccccc3)[C@](O)(C[C@H]24)[C@@H](OC)[C@@H]1O (stereo in doubt; 1) was tested, and the logLD50 was -0.92. Br.CCN1C[C@]2(COC)[C@H](O)C[C@H](OC)[C@]34C1[C@@H]([C@H](OC)[C@H]23)[C@]1(OC(C)=O)[C@H]2[C@@H](OC(=O)c3ccccc3)[C@](O)(C[C@H]24)[C@@H](OC)[C@@H]1O showed a logLD50 of -0.87. CCN1C[C@]2(COC)CC[C@H](OC)[C@]34C1[C@@H](C[C@H]23)[C@@]1(O)C[C@H](OC)[C@H]2C[C@@H]4[C@@H]1[C@H]2O gave a logLD50 of -0.94. Work on CCN1C[C@]2(C)CC[C@H](OC)[C@@]34C1[C@@]1(OCO[C@@]15C[C@H](OC)[C@H]1C[C@]3(O)[C@@H]5[C@H]1OC)[C@@H](OC(C)=O)[C@H]24 yielded a logLD50 of 2.12. CCN1C[C@@]2(COC)[C@H]3[C@@H](OC)[C@@H]4C1[C@]3([C@@H](OC)C[C@H]2OC(C)=O)[C@@H]1C[C@]2(OC(C)=O)[C@@H](OC)C[C@@]4(OC(C)=O)[C@H]1[C@H]2OC(C)=O gave a logLD50 of 2.18. CCN1C[C@@H]2CC[C@H](OC)[C@]34C1[C@@H](C[C@H]23)[C@@]1(O)C[C@@H](OC)[C@@]2(O)C[C@@H]4[C@@H]1[C@H]2OC(=O)c1ccccc1 was tested, and the logLD50 was 1.45. For CCN1C[C@]2(COC(=O)c3ccccc3N3C(=O)C[C@H](C)C3=O)CC[C@H](OC)[C@@]34C1[C@@]1(OCO[C@@]15C[C@H](OC)[C@H]1C[C@@H]3[C@@H]5[C@H]1OC)[C@@H](OC)[C@H]24 [ELATINE], the logLD50 was 0.7. With CCN1C[C@]2(COC(=O)c3ccccc3N3C(=O)C[C@H](C)C3=O)CC[C@H](OC)[C@]34C1[C@@](O)([C@@H](OC)[C@H]23)[C@@]1(O)C[C@H](OC)[C@H]2C[C@@H]4[C@@H]1[C@H]2OC the logLD50 was 0.48. In the case of COC[C@]12CN(C)C3[C@H]4[C@H](OC)[C@H]1[C@@]3([C@@H](OC)C[C@H]2O)[C@@H]1C[C@@]2(O)[C@H](OC(=O)c3ccccc3)[C@@H]1[C@]4(O)[C@@H](O)[C@@H]2OC, the logLD50 was 1.32. For Br.CCN1C[C@]2(COC)[C@H](O)C[C@H](OC)[C@]34C1[C@@H]([C@H](OC)[C@H]23)[C@]1(O)[C@H]2[C@@H](OC(=O)c3ccccc3)[C@](O)(C[C@H]24)[C@@H](OC)[C@@H]1O, the logLD50 was 1.41. CCN1C[C@]2(OC(=O)c3ccccc3NC(C)=O)CC[C@H](OC)[C@]34C1[C@@H](C[C@H]23)[C@@]1(OC(C)=O)C[C@H](OC)[C@H]2C[C@@H]4[C@]1(OC(C)=O)[C@H]2OC was tested, and the logLD50 was 1.16. Compound CCN1C[C@@]2(COC)[C@H]3[C@@H](OC)[C@@H]4C1[C@]3([C@@H](OC)C[C@H]2OC(C)=O)[C@@H]1C[C@]2(O)[C@@H](OC)C[C@@]4(OC(C)=O)[C@H]1[C@H]2OC(=O)c1ccccc1 has a logLD50 of 3.16. With CCN1C[C@]2(COC)[C@H](O)C[C@H](OC)[C@]34C1[C@@H]([C@H](OC)[C@H]23)[C@@]1(O)C[C@H](OC)[C@@]2(O)C[C@@H]4[C@@H]1[C@H]2OC(=O)c1ccccc1 the logLD50 was 2.15. Work on Br.COC[C@]12CN(C)C3[C@H]4[C@H](OC)[C@H]1[C@@]3([C@@H](OC)C[C@H]2O)[C@@H]1C[C@@]2(O)[C@H](OC(=O)c3ccccc3)[C@@H]1[C@]4(O)[C@@H](O)[C@@H]2OC yielded a logLD50 of 1.38. For COC[C@@]12CC[C@H](OC)[C@]34C([C@@H]([C@H](OC)[C@H]13)[C@]1(OC(C)=O)[C@H]3[C@@H](OC(=O)c5ccccc5)[C@](O)(C[C@H]34)[C@@H](OC)[C@@H]1O)N(C)C2, the logLD50 was -0.33. For CCN1C[C@]2(COC)[C@H](O)C[C@H](OC)[C@]34C1[C@@H]([C@H](OC)[C@H]23)[C@]1(OC(C)=O)[C@H]2[C@@H](OC(=O)c3ccccc3)[C@](O)(C[C@H]24)[C@@H](OC)[C@@H]1O (stereo in doubt; 12), the logLD50 was -0.78. In the case of CCN1C[C@]2(COC)[C@H](O)C[C@H](OC)[C@]34C1[C@@H]([C@H](OC)[C@H]23)[C@]1(OC(C)=O)[C@H]2[C@@H](OC(=O)c3ccccc3)[C@](O)(C[C@]24O)[C@@H](OC)[C@@H]1O, the logLD50 was -0.66. In the case of CCN1C[C@@]2(COC)[C@H]3[C@@H](OC)[C@@H]4C1[C@]3([C@@H](OC)C[C@H]2OC(C)=O)[C@@H]1C[C@@]2(O)[C@H](OC(=O)c3ccccc3)[C@@H]1[C@]4(OC(C)=O)[C@@H](O)[C@@H]2OC, the logLD50 was -0.4. Compound COC[C@@]12CC[C@H](OC)[C@]34C([C@@H]([C@H](OC)[C@H]13)[C@]1(O)[C@H]3[C@@H](OC(=O)c5ccccc5)[C@](O)(C[C@H]34)[C@@H](OC)[C@@H]1O)N(C)C2 has a logLD50 of 1.36. For CCN1C[C@]2(COC)[C@H](O)C[C@H](OC)[C@]34C1[C@@H]([C@H](OC)[C@H]23)[C@@]1(OC(C)=O)C[C@H](OC)[C@@]2(O)C[C@@H]4[C@@H]1[C@H]2OC(=O)c1ccc(OC)c(OC)c1, the logLD50 was 2.56.
